Experimental data published in patent US7125842B2, “Anti-fungal compounds and methods of use” (CanBas Co. Ltd., priority 2003, dated 2006).

Legend:
[1] = biological target: T1, Wee1 (Homo sapiens, UniProt P30291); assay: In vitro phosphorylation inhibition, Wee1 (ELISA); format: biochemical; details: CBP501 0.5, 5, 50 uM, 30° C., compared to cyclin-dependent kinases, PKA and PKC (FIG. 1)
T1 construct: Weel: Human fulllength recombinant with GST fusion, E. Coli; GST; host or cells: E. coli
Description: (§1) Source of kinases, measurement method, substrate, first antibody, second antibody, reaction buffer, reaction volume, ATP concentration, and reaction time are as follows. ATM and ATR: Full length recombinant human, 293T cells, enzyme linked immunosorbent assay (ELISA), GST-p53 (aal -99), anti-p53-phosphorylated Serl 5, Horse radish peroxidase (HRP)-labeled anti-rabbit IgG, 1×Mg/Mn kinase buffer (20 mM Hepes-KOH (pH7.5), 1 mM DTT, 80 ug/ml BSA, 10 mM MgCl2, 10 mM MnCl2), 50 ul, 100 uM, and 60 min. Chk1, Chk2 and c-Tak1: Full length recombinant human from SF-9 cells for Chk1, Full length recombinant human from E. Coli for Chk2 and Full length recombinant human from SF-9 cells for c-Tak1, respectively, ELISA, GST-Cdc25C (aa167–267), anti-Cdc25C-phosphorylated Ser216, HRP-labelled anti-mouse IgG, 1×Mg kinase buffer (20 mM Hepes-KOH (pH7.5), 1 mM DTT, 80 ug/ml BSA, 10 mM MgCl2), 50 ul, 50 uM, and 60 min. PLK-1: Human full length GST fusion, E. Coli, ELISA, GST fusion protein Y, Anti-phosphorylated Ser/Thr monoclonal, HRP-labelled anti-mousr IgG, 1×Mg kinase buffer, 30 ul, 50 uM, and 60 min. […]
(§2) All incubations were at 30° C. […] The phosphorylated substrate was detected with either ELISA or RIA as described above. […] The quantity of phosphorylated substrate for each kinase reaction without CBP501 was nominated as 100%.

[2] = biological target: T2, PLK1 (Homo sapiens, UniProt P53350); assay: In vitro phosphorylation inhibition, PLK1 (ELISA); format: biochemical; details: CBP501 0.5, 5, 50 uM, 30° C., compared to cyclin-dependent kinases, PKA and PKC (FIG. 1)
T2 construct: PLK-1: Human full length GST fusion, E. Coli; GST; host or cells: E. coli
T2 sequence (P53350 whole entry, the tested form may be a part): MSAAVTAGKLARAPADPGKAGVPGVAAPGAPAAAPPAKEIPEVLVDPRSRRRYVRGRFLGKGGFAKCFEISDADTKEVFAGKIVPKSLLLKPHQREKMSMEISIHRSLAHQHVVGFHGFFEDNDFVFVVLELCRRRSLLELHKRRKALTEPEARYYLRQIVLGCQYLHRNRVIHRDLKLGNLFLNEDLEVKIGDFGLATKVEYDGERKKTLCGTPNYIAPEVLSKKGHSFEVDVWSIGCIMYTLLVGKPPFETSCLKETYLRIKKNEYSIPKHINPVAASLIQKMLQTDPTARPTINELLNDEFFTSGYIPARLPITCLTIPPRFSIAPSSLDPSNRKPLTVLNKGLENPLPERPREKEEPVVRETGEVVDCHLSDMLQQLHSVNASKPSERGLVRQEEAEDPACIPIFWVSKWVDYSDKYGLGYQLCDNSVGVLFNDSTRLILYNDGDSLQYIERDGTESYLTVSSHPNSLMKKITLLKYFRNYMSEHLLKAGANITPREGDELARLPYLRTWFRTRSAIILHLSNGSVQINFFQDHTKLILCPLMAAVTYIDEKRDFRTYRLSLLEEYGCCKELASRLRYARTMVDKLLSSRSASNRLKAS
Description: as §1, §2

[3] = biological target: T3, CHK1 (Homo sapiens, UniProt O14757); assay: In vitro phosphorylation inhibition, CHK1 (ELISA); format: biochemical; details: CBP501 0.5, 5, 50 uM, 30° C., compared to cyclin-dependent kinases, PKA and PKC (FIG. 1)
T3 construct: Full length recombinant human from SF-9 cells for Chk1; host or cells: SF-9 cells
T3 sequence (O14757 1-476): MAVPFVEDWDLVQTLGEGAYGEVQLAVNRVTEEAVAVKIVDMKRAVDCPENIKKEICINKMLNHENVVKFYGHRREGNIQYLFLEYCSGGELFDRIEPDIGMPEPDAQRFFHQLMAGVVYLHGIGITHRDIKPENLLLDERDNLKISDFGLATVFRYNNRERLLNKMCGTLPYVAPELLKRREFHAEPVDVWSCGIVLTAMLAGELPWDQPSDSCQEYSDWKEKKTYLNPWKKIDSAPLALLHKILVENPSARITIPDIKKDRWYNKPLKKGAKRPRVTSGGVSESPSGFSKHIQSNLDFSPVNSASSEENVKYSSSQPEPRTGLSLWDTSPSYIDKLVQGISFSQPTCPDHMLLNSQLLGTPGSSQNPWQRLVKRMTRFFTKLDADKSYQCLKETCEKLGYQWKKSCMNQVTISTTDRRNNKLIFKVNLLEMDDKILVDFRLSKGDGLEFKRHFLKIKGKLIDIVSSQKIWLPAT
Description: as §1, §2

[4] = tested on: yeast AH109; assay: Growth inhibition of yeast AH109 on YAPD plate; format: cell-based, Saccaromices Cerevisie; details: 1 hr incubation at 30° in liquid YAPD, then 3 days on YAPD agarose plate (FIG. 2)
Description: Cell culture Saccaromices Cerevisie AH109 was purchased from CLONTECH (Palo Alto, Calif.). YAPD plates were prepared using YPD agar purchased from CLONTECH and adenine purchased from Sigma-Aldrich Co. The cells were cultured at 30 degree.
Logarithmically growing yeast AH109 in liquid medium (YAPD) was diluted to 1 to 10 with warm liquid YAPD medium with or without CBP501 and/or amphotericin B at the indicated doses. After 1 hr incubation at 30° whole solution was poured onto the YAPD agarose plate. The plate was then incubated 3 days and the samples were phtographed (FIG. 2).

[5] = biological target: T4, ATM (Homo sapiens, UniProt Q13315); assay: In vitro phosphorylation inhibition, ATM (ELISA); format: biochemical; details: CBP501 0.5, 5, 50 uM, 30° C., compared to cyclin-dependent kinases, PKA and PKC (FIG. 1)
T4 construct: ATM and ATR: Full length recombinant human, 293T cells; host or cells: 293T cells
T4 sequence (Q13315 whole entry): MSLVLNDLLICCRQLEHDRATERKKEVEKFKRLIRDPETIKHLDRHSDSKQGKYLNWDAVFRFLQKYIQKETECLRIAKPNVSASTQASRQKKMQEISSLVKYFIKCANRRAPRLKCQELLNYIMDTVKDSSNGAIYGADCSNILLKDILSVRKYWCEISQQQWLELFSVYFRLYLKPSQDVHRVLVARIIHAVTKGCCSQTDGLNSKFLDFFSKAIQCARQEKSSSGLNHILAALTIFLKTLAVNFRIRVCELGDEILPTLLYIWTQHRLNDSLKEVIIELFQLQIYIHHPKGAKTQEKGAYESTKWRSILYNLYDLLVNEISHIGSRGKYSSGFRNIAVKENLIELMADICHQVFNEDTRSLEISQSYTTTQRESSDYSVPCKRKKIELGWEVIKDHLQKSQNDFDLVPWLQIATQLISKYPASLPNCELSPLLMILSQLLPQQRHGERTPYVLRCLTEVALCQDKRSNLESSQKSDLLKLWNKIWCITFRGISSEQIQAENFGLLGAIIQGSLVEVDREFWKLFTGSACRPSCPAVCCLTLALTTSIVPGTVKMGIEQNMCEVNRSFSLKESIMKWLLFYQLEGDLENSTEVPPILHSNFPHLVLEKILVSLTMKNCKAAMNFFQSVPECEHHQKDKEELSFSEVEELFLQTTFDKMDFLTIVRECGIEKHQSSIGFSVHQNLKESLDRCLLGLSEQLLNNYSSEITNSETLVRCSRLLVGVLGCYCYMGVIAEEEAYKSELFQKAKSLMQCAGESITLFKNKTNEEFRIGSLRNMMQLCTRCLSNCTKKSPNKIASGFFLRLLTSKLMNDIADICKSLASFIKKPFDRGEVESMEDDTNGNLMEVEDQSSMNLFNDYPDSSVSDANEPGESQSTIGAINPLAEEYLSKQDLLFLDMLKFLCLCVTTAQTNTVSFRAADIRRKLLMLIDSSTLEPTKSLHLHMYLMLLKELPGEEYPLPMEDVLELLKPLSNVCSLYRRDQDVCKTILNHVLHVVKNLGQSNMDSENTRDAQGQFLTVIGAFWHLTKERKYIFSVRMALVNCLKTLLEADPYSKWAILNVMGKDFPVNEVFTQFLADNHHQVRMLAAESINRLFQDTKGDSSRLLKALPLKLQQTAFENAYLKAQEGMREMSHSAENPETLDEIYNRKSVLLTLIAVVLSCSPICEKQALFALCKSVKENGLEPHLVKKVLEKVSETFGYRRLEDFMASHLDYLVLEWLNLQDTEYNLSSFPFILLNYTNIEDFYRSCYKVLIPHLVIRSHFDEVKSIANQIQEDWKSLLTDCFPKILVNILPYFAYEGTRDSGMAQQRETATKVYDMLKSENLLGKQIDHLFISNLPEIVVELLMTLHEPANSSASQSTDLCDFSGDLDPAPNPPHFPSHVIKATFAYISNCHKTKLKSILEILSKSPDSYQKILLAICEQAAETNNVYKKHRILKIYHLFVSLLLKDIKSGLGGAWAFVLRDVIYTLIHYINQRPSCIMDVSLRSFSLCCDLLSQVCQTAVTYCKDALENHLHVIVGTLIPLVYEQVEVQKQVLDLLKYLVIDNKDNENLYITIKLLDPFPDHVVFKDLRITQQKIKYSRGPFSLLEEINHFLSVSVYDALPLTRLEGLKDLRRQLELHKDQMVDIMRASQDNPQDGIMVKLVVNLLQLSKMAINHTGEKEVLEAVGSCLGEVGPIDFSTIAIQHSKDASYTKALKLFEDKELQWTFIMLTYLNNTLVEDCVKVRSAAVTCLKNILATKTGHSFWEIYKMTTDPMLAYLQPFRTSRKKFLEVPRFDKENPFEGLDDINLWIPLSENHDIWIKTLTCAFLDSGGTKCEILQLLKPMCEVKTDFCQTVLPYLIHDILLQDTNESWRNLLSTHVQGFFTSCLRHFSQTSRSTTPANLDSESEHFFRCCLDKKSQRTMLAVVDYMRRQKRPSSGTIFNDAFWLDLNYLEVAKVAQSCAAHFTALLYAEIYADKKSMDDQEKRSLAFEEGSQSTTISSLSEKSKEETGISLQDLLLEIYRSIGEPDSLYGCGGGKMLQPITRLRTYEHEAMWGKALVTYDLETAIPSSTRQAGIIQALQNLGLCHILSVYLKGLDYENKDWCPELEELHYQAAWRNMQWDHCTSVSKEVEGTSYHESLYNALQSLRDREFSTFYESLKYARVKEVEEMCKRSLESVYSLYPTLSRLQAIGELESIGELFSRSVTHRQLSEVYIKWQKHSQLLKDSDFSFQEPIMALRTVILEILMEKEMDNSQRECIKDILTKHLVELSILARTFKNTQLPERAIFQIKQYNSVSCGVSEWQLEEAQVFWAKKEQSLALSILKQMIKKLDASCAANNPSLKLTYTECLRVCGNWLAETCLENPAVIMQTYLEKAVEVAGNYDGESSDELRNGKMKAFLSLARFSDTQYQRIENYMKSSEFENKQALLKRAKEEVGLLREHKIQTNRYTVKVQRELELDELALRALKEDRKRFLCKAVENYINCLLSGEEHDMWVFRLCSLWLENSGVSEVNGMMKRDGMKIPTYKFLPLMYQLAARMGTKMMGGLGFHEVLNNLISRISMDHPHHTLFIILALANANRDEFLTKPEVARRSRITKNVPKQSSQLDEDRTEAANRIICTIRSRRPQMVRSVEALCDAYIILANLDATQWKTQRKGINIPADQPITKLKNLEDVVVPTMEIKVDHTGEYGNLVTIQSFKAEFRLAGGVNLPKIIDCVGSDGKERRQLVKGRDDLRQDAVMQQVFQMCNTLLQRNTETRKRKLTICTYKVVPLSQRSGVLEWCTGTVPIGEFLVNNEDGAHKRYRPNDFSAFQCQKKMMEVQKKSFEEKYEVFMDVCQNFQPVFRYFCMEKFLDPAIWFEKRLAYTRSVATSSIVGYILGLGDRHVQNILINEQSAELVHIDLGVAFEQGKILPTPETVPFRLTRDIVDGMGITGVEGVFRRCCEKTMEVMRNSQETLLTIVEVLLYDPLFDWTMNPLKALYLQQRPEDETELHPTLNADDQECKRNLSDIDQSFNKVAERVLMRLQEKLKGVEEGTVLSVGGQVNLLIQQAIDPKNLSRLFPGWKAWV
Description: as §1, §2

[6] = tested on: Trichophyton mentagroohytes (ATCC 9533); assay: Minimal growth inhibitory concentration by turbidity, Trichophyton mentagroohytes; format: cell-based; details: Trichophyton mentagroohytes ATCC 9533, potato dextrose broth, 28 degree, turbidity three days after inoculation
Description: (§3) Candida albicans was obtained from ATCC (ATCC 10231) and cultured in fluid Sabouraud medium at 37 degree. The turbidity was measured one day after the innoculation and treatment with CBP501 at 0.03, 0.1, 0.3, 1, 3, 10, 30, 100 μg/ml. Candida glabrata was obtained from ATCC (ATCC 36583) and cultured in fluid Sabouraud medium at 28 degree. The turbidity was measured two days after the innoculation and treatment with CBP501 at 0.03, 0.1, 0.3, 1, 3, 10, 30, 100 μg/ml. Cryptococcus neoformans was obtained from ATCC (ATCC 24067) and cultured in fluid Sabouraud medium at 37 degree. The turbidity was measured two days after the innoculation and treatment with CBP501 at 0.03, 0.1, 0.3, 1, 3, 10, 30, 100 μg/ml. Trichophyton mentagroohytes was obtained from ATCC (ATCC 9533) and cultured in potato dextrose broth at 28 degree. The turbidity was measured three days after the innoculation and treatment with CBP501 at 0.03, 0.1, 0.3, 1, 3, 10, 30, 100 μg/ml. Minimal growth inhibitory concentrations were determined as the concentration of minimal CBP501 where the turbidity was not increased (Table 2).

[7] = tested on: Candida glabrata (ATCC 36583); assay: Minimal growth inhibitory concentration by turbidity, Candida glabrata; format: cell-based; details: Candida glabrata ATCC 36583, fluid Sabouraud medium, 28 degree, turbidity two days after inoculation
Description: as §3

[8] = tested on: Candida albicans (ATCC 10231); assay: Minimal growth inhibitory concentration by turbidity, Candida albicans; format: cell-based; details: Candida albicans ATCC 10231, fluid Sabouraud medium, 37 degree, turbidity one day after inoculation
Description: as §3

[9] = biological target: T5, CHK2 (Homo sapiens, UniProt O96017); assay: In vitro phosphorylation inhibition, CHK2 (ELISA); format: biochemical; details: CBP501 0.5, 5, 50 uM, 30° C., compared to cyclin-dependent kinases, PKA and PKC (FIG. 1)
T5 construct: Full length recombinant human from E. Coli for Chk2; host or cells: E. coli
T5 sequence (O96017 whole entry): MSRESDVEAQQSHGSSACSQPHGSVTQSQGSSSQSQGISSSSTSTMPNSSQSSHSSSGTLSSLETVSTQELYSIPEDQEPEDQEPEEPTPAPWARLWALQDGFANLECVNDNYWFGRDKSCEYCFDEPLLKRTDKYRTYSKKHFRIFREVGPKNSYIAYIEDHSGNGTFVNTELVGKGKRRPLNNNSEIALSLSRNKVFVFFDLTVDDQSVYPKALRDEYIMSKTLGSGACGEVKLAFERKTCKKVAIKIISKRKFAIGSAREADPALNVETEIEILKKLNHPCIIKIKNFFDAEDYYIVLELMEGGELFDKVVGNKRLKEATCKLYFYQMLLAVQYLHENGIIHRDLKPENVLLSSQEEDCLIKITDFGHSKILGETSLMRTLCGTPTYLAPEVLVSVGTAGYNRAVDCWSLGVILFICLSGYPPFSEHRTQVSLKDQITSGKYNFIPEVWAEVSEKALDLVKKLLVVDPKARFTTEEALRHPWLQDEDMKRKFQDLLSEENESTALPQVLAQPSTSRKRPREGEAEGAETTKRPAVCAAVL
Description: as §1, §2

[10] = tested on: Cryptococcus neoformans (ATCC 24067); assay: Minimal growth inhibitory concentration by turbidity, Cryptococcus neoformans; format: cell-based; details: Cryptococcus neoformans ATCC 24067, fluid Sabouraud medium, 37 degree, turbidity two days after inoculation
Description: as §3

[11] = biological target: T6, ATR (Homo sapiens, UniProt Q13535); assay: In vitro phosphorylation inhibition, ATR (ELISA); format: biochemical; details: CBP501 0.5, 5, 50 uM, 30° C., compared to cyclin-dependent kinases, PKA and PKC (FIG. 1)
T6 construct: ATM and ATR: Full length recombinant human, 293T cells; host or cells: 293T cells
Description: as §1, §2

T1 sequence (P30291 whole entry, the tested form may be a part): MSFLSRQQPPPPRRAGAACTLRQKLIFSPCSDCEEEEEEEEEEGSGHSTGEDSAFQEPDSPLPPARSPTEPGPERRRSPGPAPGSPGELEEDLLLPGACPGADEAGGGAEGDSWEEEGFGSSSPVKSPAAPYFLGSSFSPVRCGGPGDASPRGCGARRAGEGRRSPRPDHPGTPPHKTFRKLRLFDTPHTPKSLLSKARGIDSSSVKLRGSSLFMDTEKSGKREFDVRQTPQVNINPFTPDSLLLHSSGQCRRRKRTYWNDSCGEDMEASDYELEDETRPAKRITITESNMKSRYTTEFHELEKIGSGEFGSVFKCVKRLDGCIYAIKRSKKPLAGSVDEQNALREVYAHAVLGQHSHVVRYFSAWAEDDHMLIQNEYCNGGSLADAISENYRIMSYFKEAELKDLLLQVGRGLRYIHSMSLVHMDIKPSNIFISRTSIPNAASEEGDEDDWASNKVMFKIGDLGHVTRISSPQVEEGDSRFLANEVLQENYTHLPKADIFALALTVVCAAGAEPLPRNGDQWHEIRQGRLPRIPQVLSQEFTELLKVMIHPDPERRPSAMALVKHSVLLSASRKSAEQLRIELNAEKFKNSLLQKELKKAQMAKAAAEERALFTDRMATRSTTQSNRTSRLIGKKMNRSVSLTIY

(d-Bpa)(d-Ser)(d-Trp)(d-Ser) (d-Phe2,3,4,5,6-F)(d-Cha)(d-Arg)(d-Arg)(d-Arg)(d-Gln)(d-Arg)(d-Arg) [CBP501]
inhibition of kinase activity (phosphorylation of substrate) [1]: strongly inhibited | inhibition of kinase activity (phosphorylation of substrate) [2]: strongly inhibited | inhibition of kinase activity (phosphorylation of substrate) [3]: strongly inhibited | growth of yeast AH109 on YAPD plate [4]: growth inhibition | inhibition of kinase activity (phosphorylation of substrate) [5]: strongly inhibited | MIC (minimul inhibitory concentration) [6]: 100 µg/mL | MIC (minimul inhibitory concentration) [7]: 30 µg/mL | MIC (minimul inhibitory concentration) [8]: 100 µg/mL | inhibition of kinase activity (phosphorylation of substrate) [9]: strongly inhibited | MIC (minimul inhibitory concentration) [10]: 1 µg/mL | inhibition of kinase activity (phosphorylation of substrate) [11]: strongly inhibited
